Results as given in PubChem BioAssay AID330 (DTP/NCI, 2004).
“And” between values parts separate entries of the source, which are not always exact repeats. Equal values may be shown once. Toxic doses and inconclusive results are not listed. How the source made its calls: active means survival T/C of 150% or more; inactive means T/C below 125% in these data. Peptide text beside a SMILES is read from it. * marks the point of attachment. βNA = c1ccc2cc(N*)ccc2c1

System: P388 leukemia ip, CD2F1 mice, survival T/C
Experiment: NCI In Vivo Anticancer Drug Screen. Data for tumor model P388 Leukemia (intraperitoneal) in CD2F1 (CDF1) mice
Details: endpoint: median survival time, higher = longer survival
Procedure, shortened: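 Mice carrying the transplanted tumor received test compound or vehicle. Survival was recorded in each group, and the value is the treated-group measurement divided by that of the vehicle-treated control group.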

[1] = dose: 50.0 mg/kg/injection, schedule: Q01DX009 (ip), vehicle: saline with Tween-80
[2] = dose: 100.0 mg/kg/injection, schedule: Q01DX009 (ip), vehicle: saline with Tween-80
[3] = dose: 100.0 mg/kg/injection, schedule: Q01DX009 (ip), vehicle: Klucel (hydroxypropylcellulose) (HPC)
[4] = dose: 200.0 mg/kg/injection, schedule: Q01DX009 (ip), vehicle: Klucel (hydroxypropylcellulose) (HPC)
[5] = dose: 50.0 mg/kg/injection, schedule: Q01DX005 (ip), vehicle: saline with Tween-80

Measured: T/C

CCCCCC(O)C1C(=O)OC(C)C(O)/C=C/C=C/C=C/C=C/C=C(\C)C(O)C(O)C(O)CC(O)CC(O)CC(O)CC(O)CC1O (stereo unspecified)
inactive: dose: 0.5 mg/kg/injection, schedule: Q01DX010 (ip), vehicle: saline 100 % of control | dose: 1.0 mg/kg/injection, schedule: Q01DX010 (ip), vehicle: saline 100 % of control | dose: 2.0 mg/kg/injection, schedule: Q01DX010 (ip), vehicle: saline 100 % of control and 90 % of control | dose: 4.0 mg/kg/injection, schedule: Q01DX010 (ip), vehicle: saline 90 % of control | dose: 8.0 mg/kg/injection, schedule: Q01DX010 (ip), vehicle: saline 100 % of control

CC(=O)Nc1cc(C(=O)O)cc(C(=O)O)c1
inactive: [1] 109 % of control | [2] 105 % of control | dose: 200.0 mg/kg/injection, schedule: Q01DX009 (ip), vehicle: saline with Tween-80 92 % of control

COC(=O)C12c3ccccc3C3C(c4ccccc41)C32 (stereo unspecified)
inactive: dose: 100.0 mg/kg/injection, schedule: Q04DX003 (ip), vehicle: saline 102 % of control | dose: 200.0 mg/kg/injection, schedule: Q04DX003 (ip), vehicle: saline 96 % of control

Cc1coc2c1CC1(C)C(CCC(OC(=O)CC(C)C)C1C)C2=O (stereo unspecified) (tested in a mixture with another compound)
inactive: [3] 105 % of control | [4] 93 % of control

Cc1ccc(S(=O)(=O)N=S(=O)(CCCl)CCCl)cc1
inactive: dose: 12.5 mg/kg/injection, schedule: Q04DX003 (ip), vehicle: saline 98 % of control | dose: 25.0 mg/kg/injection, schedule: Q04DX003 (ip), vehicle: saline 98 % of control | dose: 50.0 mg/kg/injection, schedule: Q04DX003 (ip), vehicle: saline 96 % of control

O=C1NC(O)c2cc(Cl)cc(Cl)c2O1 (stereo unspecified)
inactive: dose: 50.0 mg/kg/injection, schedule: Q01DX005 (ip), vehicle: Klucel (hydroxypropylcellulose) (HPC) 102 % of control | dose: 100.0 mg/kg/injection, schedule: Q01DX005 (ip), vehicle: Klucel (hydroxypropylcellulose) (HPC) 102 % of control | dose: 200.0 mg/kg/injection, schedule: Q01DX005 (ip), vehicle: Klucel (hydroxypropylcellulose) (HPC) 115 % of control

COC(=O)C1(C)Cc2cc(OC(C)=O)c(OC(C)=O)cc2N1 (stereo unspecified)
inactive: dose: 25.0 mg/kg/injection, schedule: Q01DX001 (ip), vehicle: Klucel (hydroxypropylcellulose) (HPC) 109 % of control | dose: 50.0 mg/kg/injection, schedule: Q01DX001 (ip), vehicle: Klucel (hydroxypropylcellulose) (HPC) 100 % of control | dose: 100.0 mg/kg/injection, schedule: Q01DX001 (ip), vehicle: Klucel (hydroxypropylcellulose) (HPC) 109 % of control | dose: 200.0 mg/kg/injection, schedule: Q01DX001 (ip), vehicle: Klucel (hydroxypropylcellulose) (HPC) 114 % of control

O=C1OCc2cnccc21
inactive: dose: 8.75 mg/kg/injection, schedule: Q01DX005 (ip), vehicle: Klucel (hydroxypropylcellulose) (HPC) 98 % of control | dose: 17.5 mg/kg/injection, schedule: Q01DX005 (ip), vehicle: Klucel (hydroxypropylcellulose) (HPC) 100 % of control | dose: 35.0 mg/kg/injection, schedule: Q01DX005 (ip), vehicle: Klucel (hydroxypropylcellulose) (HPC) 97 % of control

COc1ccc2cc1Oc1ccc(cc1)CC1c3c(cc(OC)c(OC)c3Oc3cc4c(cc3OC)CCN(C)C4C2)CCN1C (stereo unspecified)
inactive: dose: 100.0 mg/kg/injection, schedule: Q01DX001 (ip), vehicle: saline with Tween-80 103 % of control | dose: 200.0 mg/kg/injection, schedule: Q01DX001 (ip), vehicle: saline with Tween-80 92 % of control

O=S1(=O)CN2C=CC=CC2=N1
inactive: dose: 6.25 mg/kg/injection, schedule: Q01DX009 (ip), vehicle: saline with Tween-80 106 % of control | dose: 12.5 mg/kg/injection, schedule: Q01DX009 (ip), vehicle: saline with Tween-80 104 % of control | dose: 25.0 mg/kg/injection, schedule: Q01DX009 (ip), vehicle: saline with Tween-80 105 % of control | [1] 105 % of control

COC(=O)/C=C/c1c[nH]c2nccnc12
inactive: dose: 12.5 mg/kg/injection, schedule: Q01DX009 (ip), vehicle: Klucel (hydroxypropylcellulose) (HPC) 98 % of control | dose: 25.0 mg/kg/injection, schedule: Q01DX009 (ip), vehicle: Klucel (hydroxypropylcellulose) (HPC) 100 % of control | dose: 50.0 mg/kg/injection, schedule: Q01DX009 (ip), vehicle: Klucel (hydroxypropylcellulose) (HPC) 102 % of control | [3] 100 % of control | [4] 98 % of control

Cc1c/c(=N\O)c2c(=O)ccoc2n1O
inactive: dose: 50.0 mg/kg/injection, schedule: Q01DX009 (ip), vehicle: suspension in saline 99 % of control | dose: 100.0 mg/kg/injection, schedule: Q01DX009 (ip), vehicle: suspension in saline 98 % of control | dose: 200.0 mg/kg/injection, schedule: Q01DX009 (ip), vehicle: suspension in saline 97 % of control

C=C1C(=O)O[C@@H]2CCC[C@H]12
inactive: dose: 12.5 mg/kg/injection, schedule: Q01DX009 (ip), vehicle: water 105 % of control | dose: 25.0 mg/kg/injection, schedule: Q01DX009 (ip), vehicle: water 112 % of control | dose: 50.0 mg/kg/injection, schedule: Q01DX009 (ip), vehicle: water 112 % of control | dose: 100.0 mg/kg/injection, schedule: Q01DX009 (ip), vehicle: water 108 % of control | dose: 200.0 mg/kg/injection, schedule: Q01DX009 (ip), vehicle: water 112 % of control

Cc1ccc(C)c2c1C(O)(C#Cc1ccccc1)c1ccccc1C2(O)C#Cc1ccccc1 (stereo unspecified)
inactive: [1] 86 % of control | [2] 86 % of control

CN(CC#CC#CCN(C)c1ccccc1)c1ccccc1
inactive: [5] 102 % of control | dose: 100.0 mg/kg/injection, schedule: Q01DX005 (ip), vehicle: saline with Tween-80 102 % of control | dose: 200.0 mg/kg/injection, schedule: Q01DX005 (ip), vehicle: saline with Tween-80 102 % of control

CN=C(c1ccc(NC(=O)c2cc(N)cc(C(=O)Nc3ccc(C(=NC)N(C)C)cc3)c2)cc1)N(C)C
inactive: dose: 6.25 mg/kg/injection, schedule: Q01DX005 (ip), vehicle: Klucel (hydroxypropylcellulose) (HPC) 104 % of control | dose: 12.5 mg/kg/injection, schedule: Q01DX005 (ip), vehicle: Klucel (hydroxypropylcellulose) (HPC) 104 % of control

COP(=O)(CC(=O)CCCCCO[Si](C)(C)C(C)(C)C)OC
inactive: dose: 60.0 mg/kg/injection, schedule: Q01DX005 (ip), vehicle: saline 98 % of control | dose: 120.0 mg/kg/injection, schedule: Q01DX005 (ip), vehicle: saline 99 % of control | dose: 240.0 mg/kg/injection, schedule: Q01DX005 (ip), vehicle: saline 100 % of control

CNCC(=O)NC(CO)C(=O)NC(CO)C(=O)NC1C(C(N)=O)OC(n2ccc(N)nc2=O)C(O)C1O (stereo unspecified)
inactive: dose: 0.1 mg/kg/injection, schedule: Q01DX009 (ip), vehicle: water 101 % of control | dose: 0.2 mg/kg/injection, schedule: Q01DX009 (ip), vehicle: water 100 % of control | dose: 0.4 mg/kg/injection, schedule: Q01DX009 (ip), vehicle: water 117 % of control | dose: 0.8 mg/kg/injection, schedule: Q01DX009 (ip), vehicle: water 95 % of control

CC(N)C(=O)NC(Cc1ccccc1)C(=O)N1CCCC1C(=O)Nc1ccc2ccccc2c1 (stereo not drawn) (H-Ala-Phe-Pro-βNA; configuration not given here)
inactive: dose: 50.0 mg/kg/injection, schedule: Q01DX005 (ip), vehicle: saline 106 % of control | dose: 100.0 mg/kg/injection, schedule: Q01DX005 (ip), vehicle: saline 92 % of control

N#Cc1c2c(c(Cl)n3c1nc1ccccc13)CCC2
inactive: dose: 60.0 mg/kg/injection, schedule: Q01DX005 (ip), vehicle: saline with Tween-80 100 % of control | dose: 120.0 mg/kg/injection, schedule: Q01DX005 (ip), vehicle: saline with Tween-80 91 % of control | dose: 240.0 mg/kg/injection, schedule: Q01DX005 (ip), vehicle: saline with Tween-80 91 % of control

CC(=O)/C(=C\c1ccc(Cl)c(Cl)c1)C(=O)C(C)CN(C)C (stereo unspecified)
inactive: dose: 12.5 mg/kg/injection, schedule: Q01DX005 (ip), vehicle: saline with Tween-80 119 % of control and 120 % of control | dose: 25.0 mg/kg/injection, schedule: Q01DX005 (ip), vehicle: saline with Tween-80 118 % of control | [5] 115 % of control and 116 % of control and 121 % of control
